{"source": "patent US20110217265A1", "about": "“Screening for Inhibitors of HCV Amphipathic Helix (AH) Function” (priority 2008, published 2011)", "key": {"Huh7.5 cells": {"system": "Huh7.5 cells", "test": "Alamar Blue cell viability assay", "type": "cell-based, human", "conditions": "in parallel with replication assays, 72 hr"}, "genotype 1b 4BAH2 [1]": {"molecular_target": "T1, genotype 1b 4BAH2 (Hepatitis C virus genotype 1b, UniProt Q9WMX2)", "T1 sequence (Q9WMX2 1754-1776)": "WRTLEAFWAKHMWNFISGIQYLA", "test": "DLS assay of 4BAH2-induced POPC lipid vesicle aggregation, genotype 1b peptide", "type": "biochemical", "design": "purchased Anaspec Corporation (San Jose, Calif., USA); host or cells: chemical synthesis", "conditions": "POPC vesicles", "method": "Dynamic light scattering. Dynamic light scattering was performed by a 90Plus particle size analyzer, and the results were analyzed by digital autocorrelator software (Brookhaven Instruments Corporation, New York). All measurements were taken at a scattering angle of 90°, where the reflection effect is minimized. Dynamic light scattering (DLS) is a well established technique for measuring particle size over the size range from a few nanometers to a few microns. The concept uses the idea that small particles in a suspension move in a random pattern, i.e., Brownian motion. When a coherent source of light (such as a laser) having a known frequency is directed at the moving particles, the light is scattered at a different frequency. The shift in light frequency is related to the size of the particles causing the shift. Due to their higher average velocity, smaller particles cause a greater shift in the light frequency than larger particles. […]\n(§1) Dynamic Light Scattering. Dynamic light scattering (DLS) was performed using a doubled, Nd:YAG laser (model 532 DPSS, Coherent Laser Group, Santa Clara, Calif.) with a wavelength, λ, of […] and a Brookhaven digital autocorrelator, and analyzed by digital autocorrelator software (Brookhaven Instruments Corporation, New York, USA). […] DLS results were analyzed to give an intensity-weighted size distribution using a discrete Laplace inversion routine. […]"}, "genotype 1b 4BAH2 [2]": {"molecular_target": "T1, genotype 1b 4BAH2", "test": "QCM-D of 4BAH2 membrane association with POPC bilayer, genotype 1b", "type": "binding", "design": "purchased Anaspec Corporation (San Jose, Calif., USA)", "method": "Quartz Crystal Microbalance-Dissipation (QCM-D). Adsorption kinetics and the properties of the adsorbed layer were studied using a Q-Sense E4, multiple channel system (Q-Sense AB, Gothenburg, Sweden). The samples are introduced using a peristaltic pump with flow rate of 0.1 mL·min^−1. AT-cut quartz crystals (Q-Sense) of 14 mm in diameter coated with a SiOx layer were used for all vesicle interaction and adsorption experiments. Each QCM crystal was treated with oxygen plasma at ˜80 watts for 3 min prior to measurement (March Plasmod Plasma Etcher, March Instruments, California, USA). Each crystal was initially driven near its resonance frequency as indicated by a maximum in the current. To capture the characteristic dissipation, the drive circuit was short-circuited and the exponential decay of the crystal oscillation was recorded and analyzed, yielding the frequency and dissipation changes at 5, 15, 25, 35, 45, 55, and 65 MHz. The temperature of the Q-Sense cell was set at 25.0° C. and accurately controlled by a Peltier element in the cell with fluctuation smaller than ±0.05° C. All experiments were repeated at least three times, with a standard deviation of less than 2%."}, "genotype 2a 4BAH2": {"molecular_target": "genotype 2a 4BAH2 (Hepatitis C virus genotype 2a, UniProt Q99IB8)", "sequence (Q99IB8 1758-1780)": "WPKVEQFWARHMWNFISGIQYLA", "test": "DLS assay of 4BAH2-induced POPC lipid vesicle aggregation, genotype 2a peptide", "type": "biochemical", "design": "purchased Anaspec Corporation (San Jose, Calif., USA); host or cells: chemical synthesis", "conditions": "POPC vesicles", "method": "Small Unilamellar Vesicle Preparation. Vesicles of 1-palmitoyl-2-oleoyl-sn-glycero-3-phosphocholine (POPC) (Avanti Polar Lipids, Alabaster, Ala., USA) with well-defined size distributions were prepared by the extrusion method. Throughout the experiments, we used a phosphate buffered saline (PBS) buffer (10 mM, pH 7.5 and 150 mM NaCl) in […] MilliQ water (Millipore, Oregon, USA). Extruded vesicles (referred to simply as vesicles) were prepared in the following manner. Lipid films were prepared by first drying the as-supplied lipids dissolved in chloroform under a gentle stream of nitrogen at room temperature. Then the resulting lipid film was stored under vacuum for at least 5 hr in order to remove residual chloroform. Vesicles were prepared by first swelling the lipid film in aqueous solution then vortexing periodically for 5 min. […]\nas §1"}}}
{"smiles": "CC(C)CN(C)c1nc(N)c(C(=O)NC(=N)N)nc1Cl", "note": "[C4, 3-amino-N-carbamimidoyl-6-chloro-5-(isobutyl(methyl)amino)pyrazine-2-carboxamide]", "values": [{"measurement": "Cellular toxicity (Alamar Blue viability)", "setting": "Huh7.5 cells", "value": "No significant cellular toxicity"}, {"measurement": "Inhibition of genotype 1b 4BAH2-mediated vesicle aggregation (DLS)", "setting": "genotype 1b 4BAH2 [1]", "value": "inhibited genotype 1b 4BAH2-mediated vesicle aggregation"}, {"measurement": "Effect on genotype 1b 4BAH2 membrane association (QCM-D)", "setting": "genotype 1b 4BAH2 [2]", "value": "no effect"}, {"measurement": "Inhibition of genotype 2a 4BAH2-induced vesicle aggregation (DLS)", "setting": "genotype 2a 4BAH2", "value": "essentially abrogated"}]}
